“And” between values parts separate entries of the source, which are not always exact repeats. Identical values can stand only once. Like-named read-outs stand apart in the source and are kept apart here.
Legend:
EV-D68 = test: microbe, parasite or virus in culture; type: cell-based, enterovirus D68; conditions: Enterovirus D
HRV-A2 = test: microbe, parasite or virus in culture; type: cell-based, human rhinovirus
HRV-B14 [1] = test: microbe, parasite or virus in culture; type: cell-based, human rhinovirus; conditions: for EC50: Human rhinovirus sp.
CV-B3 = test: microbe, parasite or virus in culture; type: cell-based, coxsackievirus B3; conditions: Enterovirus B
[2] = tested on: representative EVs and RVs; type: cell-based
EV-A71 (strain BrCr) = type: cell-based, enterovirus A71
CV-B3 (strain Nancy) = type: cell-based, coxsackievirus B3
CV-A24 (strain Joseph) = type: cell-based, coxsackievirus A24
EV-D68 (strain Fermon) = type: cell-based, enterovirus D68
HRV-B14 [3] = type: cell-based, human rhinovirus
human SERT = biological target: T1, human SERT (Homo sapiens, UniProt P31645); type: cell-based; conditions: for SERT, Mean (Figure 8B): Control = 100.00; for SERT, Mean as % (Figure 8B): Control = 100%
T1 construct: expressed in transfected cells; host or cells: HEK293 (gift of Dr. Hoener, F. Hoffmann-La Roche)

human NET = biological target: T2, human NET (Homo sapiens, UniProt P23975); type: cell-based; conditions: for NET, Mean (Figure 8B): Control = 100; for NET, Mean as % (Figure 8B): Control = 100%
T2 construct: expressed in transfected cells; host or cells: HEK293 (gift of Dr. Hoener, F. Hoffmann-La Roche)

in vitro [4] = conditions: human
in vitro [5] = conditions: monkey

T1 sequence (P31645 whole entry): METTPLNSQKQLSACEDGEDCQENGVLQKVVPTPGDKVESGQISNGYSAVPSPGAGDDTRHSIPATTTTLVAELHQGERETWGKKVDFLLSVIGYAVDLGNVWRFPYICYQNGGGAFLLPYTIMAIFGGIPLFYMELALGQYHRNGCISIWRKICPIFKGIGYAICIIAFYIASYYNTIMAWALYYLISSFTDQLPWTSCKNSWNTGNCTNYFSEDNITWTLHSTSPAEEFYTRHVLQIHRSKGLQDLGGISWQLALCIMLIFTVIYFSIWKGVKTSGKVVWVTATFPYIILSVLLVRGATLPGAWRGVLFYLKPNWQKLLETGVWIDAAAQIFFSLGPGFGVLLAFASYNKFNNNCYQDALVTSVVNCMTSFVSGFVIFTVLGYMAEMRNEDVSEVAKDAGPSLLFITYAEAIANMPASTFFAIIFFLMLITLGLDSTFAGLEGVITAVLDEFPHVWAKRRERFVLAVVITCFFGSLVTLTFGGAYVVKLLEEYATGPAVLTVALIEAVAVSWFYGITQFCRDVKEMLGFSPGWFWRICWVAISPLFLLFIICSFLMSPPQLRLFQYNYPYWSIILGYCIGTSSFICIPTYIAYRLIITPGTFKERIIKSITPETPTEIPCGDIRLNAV
T2 sequence (P23975 whole entry): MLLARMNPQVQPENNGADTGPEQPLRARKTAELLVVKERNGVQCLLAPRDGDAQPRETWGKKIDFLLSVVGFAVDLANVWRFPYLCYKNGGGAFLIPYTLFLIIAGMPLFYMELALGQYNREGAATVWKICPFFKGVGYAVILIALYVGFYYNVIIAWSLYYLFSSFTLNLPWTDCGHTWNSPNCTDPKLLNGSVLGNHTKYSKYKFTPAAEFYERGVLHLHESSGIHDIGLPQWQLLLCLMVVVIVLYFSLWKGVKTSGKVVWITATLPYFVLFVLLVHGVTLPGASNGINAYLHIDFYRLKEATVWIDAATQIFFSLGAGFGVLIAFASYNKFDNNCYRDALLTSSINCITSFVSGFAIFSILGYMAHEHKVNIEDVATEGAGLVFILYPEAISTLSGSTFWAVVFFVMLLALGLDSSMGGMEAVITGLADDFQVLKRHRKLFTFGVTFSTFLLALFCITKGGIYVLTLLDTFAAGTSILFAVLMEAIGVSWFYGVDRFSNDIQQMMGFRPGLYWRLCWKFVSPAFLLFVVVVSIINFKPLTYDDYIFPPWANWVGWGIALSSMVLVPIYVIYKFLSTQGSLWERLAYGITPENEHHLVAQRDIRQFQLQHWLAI

COc1ccc(N(Cc2ccc(F)cc2)C(=O)c2cc[nH]c2)cc1 [Compound 12a, N-(4-Fluorobenzyl)-N-(4-methoxyphenyl)-1H-pyrrole-3-carboxamide]
EC50 (EV-D68; EVD68, HeLa R19, read-out: EC50 Average): 1250 nM
EC50 (EV-D68; EVD68, HeLa R19, read-out: EC50 EV-D68): 1080 ± 200 nM
EC50 (EV-D68; EVD68, HeLa R19, read-out: EC50 EV-D68 strain 4310900947): 1840 ± 400 nM
EC50 (EV-D68; EVD68, HeLa R19, read-out: EC50 EV-D68 strain 4310901348): 2720 ± 960 nM
EC50 (EV-D68; EVD68, HeLa R19, read-out: EC50 EV-D68 strain 4310902042): 1440 ± 230 nM
EC50 (EV-D68; EVD68, HeLa R19, read-out: EC50 EV-D68 strain 4310902284): 2310 ± 820 nM
EC50 (EV-D68; EVD68, HeLa R19, read-out: EC50 EV-D68 strain 4311000742): 1860 ± 160 nM
EC50 (EV-D68; EVD68, HeLa R19, read-out: EC50 EV-D68 strain Fermon): 1230 ± 160 nM
EC50 (EV-D68; EVD68 / genotype 2c, HeLa R19, read-out: EC50 EV-D68 WT): 1250 ± 90 nM
Figure 7 dose-response raw data, HRV-A2 (triplicate values) (HRV-A2; Concentration 0.0412 µM): 16.3585 and 16.9681 and 15.3831
Figure 7 dose-response raw data, HRV-A2 (triplicate values) (HRV-A2; Concentration 0.3704 µM): 15.1392 and 18.0654 and 15.3831
Figure 7 dose-response raw data, HRV-A2 (triplicate values) (HRV-A2; Concentration 1.1111 µM): 18.0654 and 16.8462 and 24.4056
Figure 7 dose-response raw data, HRV-A2 (triplicate values) (HRV-A2; Concentration 3.3333 µM): 11.1156 and 18.0654 and 21.7232
Figure 7 dose-response raw data, HRV-A2 (triplicate values) (HRV-A2; Concentration 11.1111 µM): 48.3946 and 57.9264 and 41.9398
Figure 7 dose-response raw data, HRV-A2 (triplicate values) (HRV-A2; Concentration 33.3333 µM): 99.5652 and 104.147 and 100.034
Figure 7 dose-response raw data, HRV-A2 (triplicate values) (HRV-A2; Concentration 100 µM): 89.5652 and 104.147 and 110.034
EC50 (HRV-A2; Human rhinovirus sp., HRVA2, HeLa R19, read-out: EC50 HRV-A2): 8510 ± 220 nM
Figure 7 dose-response raw data, HRV_B14 (triplicate values) (HRV-B14 [1]; Concentration 0.0046 µM): 15.2266 and 14.5606
Figure 7 dose-response raw data, HRV_B14 (triplicate values) (HRV-B14 [1]; Concentration 0.0412 µM): 11.568 and 20.943 and 17.6535
Figure 7 dose-response raw data, HRV_B14 (triplicate values) (HRV-B14 [1]; Concentration 0.3704 µM): 18.8048 and 20.943 and 27.193
Figure 7 dose-response raw data, HRV_B14 (triplicate values) (HRV-B14 [1]; Concentration 1.1111 µM): 18.8048 and 20.943 and 27.193
Figure 7 dose-response raw data, HRV_B14 (triplicate values) (HRV-B14 [1]; Concentration 3.3333 µM): 94.6272 and 95.7785 and 85.4167
Figure 7 dose-response raw data, HRV_B14 (triplicate values) (HRV-B14 [1]; Concentration 11.1111 µM): 94.6272 and 95.7785 and 85.4167
Figure 7 dose-response raw data, HRV_B14 (triplicate values) (HRV-B14 [1]; Concentration 33.3333 µM): 98.3946 and 104.147 and 102.94
Figure 7 dose-response raw data, HRV_B14 (triplicate values) (HRV-B14 [1]; Concentration 100 µM): 89.5652 and 94.1472 and 100.034
EC50 (HRV-B14 [1]; HRVB14, HeLa R19, read-out: EC50 Exp1): 1660 nM
EC50 (HRV-B14 [1]; HRVB14, HeLa R19, read-out: EC50 HRV-B14): 1450 ± 210 nM
EC50 (CV-B3; CVB3, HAP1): 20 ± 20 nM
EC50 (CV-B3; CVB3, HAP1, read-out: EC50 Hap1 Average): 23 nM
EC50 (CV-B3; CVB3, HAP1, read-out: Exp 1 EC50 Hap1): 40 nM
EC50 (CV-B3; CVB3, HAP1, read-out: Exp 2 EC50 Hap1): 6 nM
inhibition of contemporary/clinical isolates of EV-A71, CV-A24v and EV-D68 (in words) [2]: inhibited all clinical isolates of EV-A71, CV-A24v, and EV-D68 tested
spectrum of antiviral activity (in words) [2]: inhibited all representative EVs and RVs
virus titer, TCID50/ml (Figure 2A) (EV-A71 (strain BrCr); compound concentration 1 µM): 316228 TCID50/ml
virus titer, TCID50/ml (Figure 2A) (EV-A71 (strain BrCr); compound concentration 3 µM): 316.228 TCID50/ml
virus titer, TCID50/ml (Figure 2A) (EV-A71 (strain BrCr); compound concentration 10 µM): 316.228 TCID50/ml
virus titer, TCID50/ml (Figure 2A) (EV-A71 (strain BrCr); compound concentration 30 µM): 316.228 TCID50/ml
virus titer, TCID50/ml (Figure 2A) (EV-A71 (strain BrCr); compound concentration 100 µM): 316.228 TCID50/ml
virus titer, TCID50/ml (Figure 2A) (EV-A71 (strain BrCr); compound concentration 150 µM): 316.228 TCID50/ml
virus titer, TCID50/ml (Figure 2A) (CV-B3 (strain Nancy); compound concentration 0.001 µM): 316227800 TCID50/ml and 467735100 TCID50/ml
virus titer, TCID50/ml (Figure 2A) (CV-B3 (strain Nancy); compound concentration 0.01 µM): 467735100 TCID50/ml and 316227800 TCID50/ml
virus titer, TCID50/ml (Figure 2A) (CV-A24 (strain Joseph); compound concentration 0.1 µM): 469824 TCID50/ml and 562341 TCID50/ml and 300000 TCID50/ml
virus titer, TCID50/ml (Figure 2A) (CV-A24 (strain Joseph); compound concentration 1 µM): 169824 TCID50/ml and 316228 TCID50/ml
virus titer, TCID50/ml (Figure 2A) (CV-A24 (strain Joseph); compound concentration 100 µM): 316.228 TCID50/ml
virus titer, TCID50/ml (Figure 2A) (EV-D68 (strain Fermon); compound concentration 0.01 µM): 6000000 TCID50/ml and 4677352 TCID50/ml
virus titer, TCID50/ml (Figure 2A) (EV-D68 (strain Fermon); compound concentration 0.1 µM): 7000000 TCID50/ml and 4677352 TCID50/ml and 8000000 TCID50/ml
virus titer, TCID50/ml (Figure 2A) (EV-D68 (strain Fermon); compound concentration 3 µM): 21379.6 TCID50/ml and 35481.3 TCID50/ml and 31622.8 TCID50/ml
virus titer, TCID50/ml (Figure 2A) (EV-D68 (strain Fermon); compound concentration 100 µM): 31622.8 TCID50/ml and 21379.6 TCID50/ml and 35481.3 TCID50/ml
virus titer, TCID50/ml (Figure 2A) (HRV-B14 [3]; compound concentration 0.3 µM): 10000000 TCID50/ml and 16982440 TCID50/ml
virus titer, TCID50/ml (Figure 2A) (HRV-B14 [3]; compound concentration 3 µM): 10000000 TCID50/ml and 16982440 TCID50/ml
SERT, Mean (Figure 8B) (human SERT; 1µM): 99.47
SERT, Mean as % (Figure 8B) (human SERT; 1µM): 99%
SERT, Mean (Figure 8B) (human SERT; 100µM): 114.09
SERT, Mean as % (Figure 8B) (human SERT; 100µM): 114%
inhibition of SERT-mediated uptake (in words) (human SERT; HEK293 cells expressing human SERT, 1 and 100 μM): neither 12a, 19b, 19d, nor the combined compound 12b inhibited
NET, Mean (Figure 8B) (human NET; 1µM): 121.035
NET, Mean as % (Figure 8B) (human NET; 1µM): 121%
NET, Mean (Figure 8B) (human NET; 100µM): 112.597
NET, Mean as % (Figure 8B) (human NET; 100µM): 113%
inhibition of NET function (in words) (human NET; HEK293 cells expressing human NET, 1 μM or 100 μM): neither 12a, 19b, 19d, nor the combined compound 12b inhibited
cytotoxicity (in words) (HeLa R19 cells): no cytotoxicity
CC50 (in vitro [4]; CC50): > 100000 nM
CC50 (in vitro [4]; CC50 Hap1 Average): > 100000 nM
CC50 (in vitro [4]; Exp 1 CC50 Hap1): > 100000 nM
CC50 (in vitro [4]; Exp 2 CC50 Hap1): > 100000 nM
CC50 (in vitro [5]; CC50): > 100000 nM
CC50 (in vitro [5]; CC50 BGM Average): > 100000 nM
CC50 (in vitro [5]; Exp 1 CC50 BGM): > 100000 nM
CC50 (in vitro [5]; Exp 2 CC50 BGM): > 100000 nM

— publication PMC7673538 (PLoS Biology, 2020)
